The text below walks through data of patent publication US9877962B2, “Piperazinyl derivatives for the treatment of cancer” (priority 2011, dated 2018).

Format in all cases: cell-based, human
In one experiment the test system is MCF-7. As to the kind of experiment: Cytotoxicity test (ViaLight Plus cell proliferation) on MCF-7. The settings on record: 72 hours' incubation, cell viability vs 0.5% DMSO control; for IC50: Homo sapiens, MCF7, 72 h, read-out: EC50 MCF-7. From the text: (§1) The effects of the compounds of the invention on the proliferation of cancer cells were studied on different human cancer cell lines of different tissue origin (MCF-7: breast cancer, MCF-7/adr adriamycin-resistant breast cancer, HL-60: acute promyelocytic leukaemia, HL-60/R10: doxorubicin-resistant acute promyelocytic leukaemia, HT29: colon adenocarcinoma, Mia Paca2: pancreatic tumour, Panc-1: pancreatic exocrine tumour, SK-OV-3: cisplatin- and adriamycin resistant ovarian cancer). The cancer cells used for this study were incubated at 37° C. in the presence of one of the compounds of the invention added to the culture medium at different concentrations.
(§2) The cancer cell lines were obtained from ATCC (American Type Culture Collection) for MCF-7, from Hôpital de la Pitié Salpetrière for MCF-7/adr and from Oncodesign (Dijon, France) for HL-60, HL-60/R10, HT29, MiaPaCa2, Panc-1 and SK-OV-3. They were cultured in RPMI 1640 medium containing 2 mM L-Glutamine supplemented with 10% foetal calf serum (Lonza; Verviers, Belgium). All the cell lines were held in culture at 37° C. in a humid atmosphere containing 5% CO2. Cell proliferation was assessed using the ViaLight® Plus Assay Kit (Lonza; Verviers, Belgium) following the manufacturer's instructions. The cells were seeded in 96-well culture plates compatible with luminescence read-off (white plates with transparent bottom) in a proportion of 5 000 to 10 000 cells per well in 100 μl of culture medium. After a pre-incubation time of 24 hours at 37° C., the compounds of the invention dissolved in dimethylsulfoxide (DMSO) were individually added to each well in a proportion of 0.5 μl per well. After 72 hours' incubation at 37° C. in a humid atmosphere containing 5% CO2, 50 μl of lysis buffer were added to each well and 15 minutes later 100 μl of ATP measuring agent were added. The plates were read under a luminometer to evaluate cell viability. The data obtained was processed by computer to obtain the EC50 value i.e. the concentration value of each of the compounds which induces 50% cell viability compared with a control value (0.5% DMSO alone).

Another experiment has as its system HL-60. Description: Cytotoxicity test (ViaLight Plus cell proliferation) on HL-60. The note with it: 72 hours' incubation, cell viability vs 0.5% DMSO control; for IC50: Homo sapiens, HL-60, 72 h, read-out: EC50 HL-60.
Description: as §1, §2

In another experiment the test system is HL-60/R10. As to the kind of experiment: Cytotoxicity test (ViaLight Plus cell proliferation) on HL-60/R10. The note with it: doxorubicin-resistant line, 72 hours' incubation, cell viability vs 0.5% DMSO control, read-out: EC50 HL60/R10; for IC50: Homo sapiens, HL-60, 72 h.
Description: as §1, §2

The next experiment deals with MCF-7/adr. Description: Cytotoxicity test (ViaLight Plus cell proliferation) on MCF-7/adr. The note with it: adriamycin-resistant line, 72 hours' incubation, cell viability vs 0.5% DMSO control; for IC50: Homo sapiens, NCI/ADR-RES, 72 h, read-out: EC50 MCF-7/adr.
Description: as §1, §2

On to `CC1CN(C(=O)C(c2cccs2)N(C(=O)CCl)c2cccc(C(F)(F)F)c2)CC(C)N1C(=O)OCc1ccccc1` (stereo not drawn) [Example I-29], for which the IC50 came out at 1030 nM in the experiment with MCF-7, 939 nM in the experiment with HL-60, 38 nM with HL-60/R10 and 54 nM in the experiment with MCF-7/adr.
The matching figures for `CC1CN(C(=O)C(c2cccs2)N(C(=O)CCl)c2ccc(Oc3ccccc3)cc2)CC(C)N1` (stereo not drawn) [Example I-30]: 1010 nM, 202 nM, 10 nM and 44 nM.
For `CC1CN(C(=O)C(c2cccs2)N(C(=O)CCl)c2ccc(Oc3ccccc3)cc2)CC(C)N1C(=O)OCc1ccccc1` (stereo not drawn) [Example I-31], in that order: 2500 nM, 766 nM, 64 nM and 89 nM.
For `CC1CN(C(=O)C(c2cccs2)N(C(=O)CCl)c2ccc(Oc3ccccc3)cc2)CC(C)N1C(=O)OC(C)(C)C` (stereo not drawn) [Example I-32], in that order: 2500 nM, 175 nM, 78 nM and 58 nM.
On to `O=C(C(c1cccs1)N(C(=O)CCl)c1ccc(Oc2ccccc2)cc1)N1CCN2CCC[C@H]2C1` (stereo partly drawn) [Example I-34], for which the IC50 worked out at 1780 nM with MCF-7, 1120 nM with HL-60, 30 nM in the experiment with HL-60/R10 and 100 nM in the experiment with MCF-7/adr.
The matching figures for `O=C(C(c1cccs1)N(C(=O)CCl)c1ccc(Oc2ccccc2)cc1)N1CC2CC1CN2` (stereo not drawn) [Example I-35]: 632 nM, 300 nM, 249 nM and 863 nM.
The matching figures for `C[C@@H]1CN(C(=O)C(c2cccs2)N(C(=O)CCl)c2ccc(Oc3ccccc3)cc2)CCN1C(=O)OCc1ccccc1` (stereo partly drawn) [Example I-36]: 2500 nM, 372 nM, 28 nM and 24 nM.
On to `Cc1cc(Oc2ccccc2)ccc1N(C(=O)CCl)C(C(=O)N1CCN(C(=O)OCc2ccccc2)[C@H](C)C1)c1cccs1` (stereo partly drawn) [Example I-37], for which the IC50 in the experiment on MCF-7 turned out to be 2500 nM; in the experiment on HL-60, 967 nM; with HL-60/R10, 154 nM; in the experiment with MCF-7/adr, 156 nM.
In the case of `Cc1c(N(C(=O)CCl)C(C(=O)N2C[C@@H](C)N[C@@H](C)C2)c2cccs2)cccc1C(F)(F)F` (stereo partly drawn) [Example I-38], the IC50 is 2500 nM in the experiment with MCF-7, 2500 nM in the experiment on HL-60, 189 nM in the experiment on HL-60/R10 and 851 nM in the experiment on MCF-7/adr.
Turning to `CC[C@H]1CN(C(=O)C(c2cccs2)N(C(=O)CCl)c2ccc(Oc3ccccc3)cc2)CCN1` (stereo partly drawn) [Example I-39], the IC50 is 776 nM with MCF-7, 1810 nM in the experiment with HL-60, 9 nM in the experiment on HL-60/R10 and 52 nM in the experiment on MCF-7/adr.
As to “tert-butyl ester of 4-[2-[(2-chloro-acetyl)-(4-phenoxy-phenyl)-amino]-2-(4-fluoro-phenyl)-acetyl]-(S)-2-isopropyl-piperazine-1-carboxylic acid [I-1 dia2]”, the EC50 in the experiment on MCF-7 is 1300 nM; in the experiment with HL-60, 824 nM; with HL-60/R10, 23 nM; in the experiment on MCF-7/adr, 39 nM.
For “tert-butyl ester of 4-[-2-[(2-chloro-acetyl)-(4-phenoxy-phenyl)-amino]-2-(4-fluoro-phenyl)-acetyl]-(R)-2-isopropyl-piperazine-1-carboxylic acid [I-2 dia1]”, in that order: 2090 nM, 728 nM, 40 nM and 49 nM.
